Laboratory results as given in patent publication US20230365526A1, “PYRIDAZINE DERIVATIVES FOR MODULATING NUCLEIC ACID SPLICING” (REMIX THERAPEUTICS INC., priority 2020, published 2023).
Where two headings read alike, the source gives them in different places.

Experiments:
Type in all cases: cell-based
[1] = system: HTT mRNA; assay: RT-qPCR splicing assay monitoring HTT canonical (CJ) and alternative (AJ) junction mRNA in A673 or K562 cells; conditions: 24 hours compound treatment, top dose 10 uM
Protocol: (§1) Compounds described herein were used to modulate RNA transcript abundance in cells. The expression of a target mRNA was measured by detecting the formation of an exon-exon junction in the canonical transcript (CJ). A compound mediated exon-inclusion event was detected by observing an increase in formation of a new junction with an alternative exon (AJ). Real-time qPCR assays were used to detect these splicing switches and interrogate the potency of various compounds towards different target genes. A high-throughput real time quantitative PCR (RT-qPCR) assay was developed to measure these two isoforms of the mRNA (CJ and AJ) for an exemplary gene, HTT, together with a control housekeeping gene, GAPDH or GUSB or PPIA, used for normalization. Briefly, the A673 or K562 cell line was treated with various compounds described herein (e.g., compounds of Formula (I)). After treatment, the levels of the HTT mRNA targets were determined from each sample of cell lysate by cDNA synthesis followed by qPCR.
• Cells-to-CT 1-step kit: ThermoFisher A25602, Cells-to-CT lysis reagent: ThermoFisher 4391851C, TaqMan™ Fast Virus 1-Step Master Mix: ThermoFisher 4444436 • GAPDH: VIC-PL, ThermoFisher 4326317E (Assay: Hs99999905_m1)—used for K562/suspension cell lines • GUSB: VIC-PL, ThermoFisher 4326320E (Assay: Hs99999908_m1)—used for K562/suspension cell lines • PPIA: VIC-PL, ThermoFisher 4326316E (Assay: Hs99999904_m1)—used for A673/adherent cell lines
(§2) The A673 cell line was cultured in DMEM with 10% FBS. Cells were diluted with full growth media and plated in a 96-well plate (15,000 cells in 100 ul media per well). The plate was incubated at 37° C. with 5% CO2 for 24 hours to allow cells to adhere. An 11-point 3-fold serial dilution of the compounds was made in DMSO then diluted in media in an intermediate plate. Compounds were transferred from the intermediate plate to the cell plate with the top dose at a final concentration of 10 uM in the well. Final DMSO concentration was kept at or below 0.25%. The cell plate was returned to the incubator at 37° C. with 5% CO2 for an additional 24 hours.
(§3) The K562 cell line was cultured in IMDM with 10% FBS. For K562, cells were diluted with full growth media and plated in either a 96-well plate (50,000 cells in 50 uL media per well) or a 384-well plate (8,000-40,000 cells in 45 uL media per well). An 11-point 3-fold serial dilution of the compounds were made in DMSO then diluted in media in an intermediate plate. Compound was transferred from the intermediate plate to the cell plate with the top dose at a final concentration of 10 uM in the well. Final DMSO concentration was kept at or below 0.25%. Final volume was 100 uL for 96-well plate and 50 uL for 384-well plate. The cell plate was then placed in an incubator at 37° C. with 5% CO2 for 24 hours.
(§4) The cells were then gently washed with 50 uL-100 uL cold PBS before proceeding to addition of lysis buffer. 30 uL-50 uL of room temperature lysis buffer with DNAse I (and optionally RNAsin) was added to each well. Cells were shaken/mixed thoroughly at room temperature for 5-10 minutes for lysis to take place and then 3 uL-5 uL of room temperature stop solution was added and wells were shaken/mixed again. After 2-5 minutes, the cell lysate plate was transferred to ice for RT-qPCR reaction setup. The lysates could also be frozen at −80° C. for later use.
In some cases, a direct lysis buffer was used. An appropriate volume of 3×lysis buffer (10 mM Tris, 150 mM NaCl, 1.5%-2.5% Igepal and 0.1-1 U/uL RNAsin, pH 7.4) was directly added to either K562 or A673 cells in media and mixed by pipetting 3 times. The plates were then incubated at room temperature with shaking/rocking for 20-50 minutes to allow for lysis to take place. After this time, the cell lysate plate was transferred to ice to set up for the RT-qPCR reactions. The lysates could also be frozen at −80° C. for later use. […]

[2] = system: HTT; assay: Gene panel canonical junction RT-qPCR assay: HTT; conditions: read-out: HTT (IC50, decrease in CJ mRNA levels)
Protocol: as §1, §2, §3, §4
(§5) In some cases, a direct lysis buffer was used. An appropriate volume of 3×lysis buffer (10 mM Tris, 150 mM NaCl, 1.5%-2.5% Igepal and 0.1-1 U/uL RNAsin, pH 7.4) was directly added to either K562 or A673 cells in media and mixed by pipetting 3 times. The plates were then incubated at room temperature with shaking/rocking for 20-50 minutes to allow for lysis to take place. After this time, the cell lysate plate was transferred to ice to set up for the RT-qPCR reactions. The lysates could also be frozen at −80° C. for later use.
(§6) To set up 10 uL RT-qPCR reactions, cell lysates were transferred to 384-well qPCR plates containing the master mix according to the table below. The plates were sealed, gently vortexed, and spun down before the run. The volumes were adjusted accordingly in some instances where the reaction was carried in 20 uL. The table below summarizes the components of the RT-qPCR reactions:
(§7) The RT-qPCR reaction was performed using a QuantStudio (ThermoFisher) under the following fast cycling conditions. […]

[3] = system: SMN2; assay: Gene panel canonical junction RT-qPCR assay: SMN2; conditions: read-out: SMN2 (IC50, decrease in CJ mRNA levels)
Protocol: as §1, §2, §3, §4, §5, §6, §7

[4] = system: Target C; assay: Gene panel canonical junction RT-qPCR assay: Target C; conditions: read-out: Target C (IC50, decrease in CJ mRNA levels)
Protocol: as §1, §2, §3, §4, §5, §6, §7

[5] = decrease in CJ mRNA, read-out: HTT CJ AC50
[6] = increase in AJ mRNA, read-out: HTT AJ AC50

Row | Structure (SMILES) | AC50 [1, 5] | AC50 [1, 6] | IC50 [2] | IC50 [3] | IC50 [4]
1 | COc1cc(-c2ccc(N(C)[C@@H]3C[C@H]4CC[C@@H](C3)N4)nn2)ccc1-c1cn[nH]c1 [Compound 208] | 0.1 to 1 µM | 0.1 to 1 µM | 0.1 to 1 µM | < 0.1 µM | 0.1 to 1 µM
2 | COc1nc(-c2ccc(N(C)[C@@H]3C[C@H]4CC[C@@H](C3)N4)nn2)ccc1-c1cn[nH]c1 [Compound 133, (1R,3S,5S)—N-[6-[6-methoxy-5-(1H-pyrazol-4-yl)pyridin-2-yl]pyridazin-3-yl]-N-methyl-8-azabicyclo[3.2.1]octan-3-amine] | < 0.1 µM | 0.1 to 1 µM | < 0.1 µM | < 0.1 µM | < 0.1 µM
3 | COc1nc(-c2ccc(N(C)[C@@H]3C[C@H]4CC[C@@H](C3)N4)nn2)ncc1-c1cn[nH]c1 [Compound 207] | 1 to 10 µM | 1 to 10 µM | 1 to 10 µM | 1 to 10 µM | 1 to 10 µM
4 | COc1nc(-c2ccc(N(C)[C@@H]3C[C@H]4CC[C@@H](C3)N4)nn2)ccc1-n1cccn1 [Compound 134, (1R,3S,5S)—N-[6-[6-methoxy-5-(pyrazol-1-yl)pyridin-2-yl]pyridazin-3-yl]-N-methyl-8-azabicyclo[3.2.1]octan-3-amine] | 0.1 to 1 µM | 0.1 to 1 µM | 0.1 to 1 µM | 0.1 to 1 µM | > 10 µM
5 | Cc1nc(-c2ccc(N(C)[C@@H]3C[C@H]4CC[C@@H](C3)N4)nn2)ccc1-c1cn[nH]c1 [Compound 171] | 1 to 10 µM | 1 to 10 µM | 1 to 10 µM | 0.1 to 1 µM | 1 to 10 µM
6 | COc1nc(-c2ccc(OC3CC(C)(C)NC(C)(C)C3)nn2)ccc1-c1cn[nH]c1 [Compound 244, 3-[6-methoxy-5-(1H-pyrazol-4-yl)pyridin-2-yl]-6-[(2,2,6,6-tetramethylpiperidin-4-yl)oxy] pyridazine] | 0.1 to 1 µM | 0.1 to 1 µM | < 0.1 µM | – | 0.1 to 1 µM
7 | COc1nc(-c2ccc(OC3CC(C)(C)NC(C)(C)C3)nn2)ccc1-n1cccn1 [Compound 271, bis(3-[6-methoxy-5-(pyrazol-1-yl)pyridin-2-yl]-6-[(2,2,6,6-tetramethylpiperidin-4-yl)oxy]pyridazine)] | 1 to 10 µM | 1 to 10 µM | 1 to 10 µM | – | 1 to 10 µM
8 | COc1nc(-c2ccc(NC3CCNCC3)nn2)ccc1-c1cnn(C)c1 [Compound 257, 6-[6-methoxy-5-(1-methylpyrazol-4-yl)pyridin-2-yl]-N-(piperidin-4-yl)pyridazin-3-amine] | 1 to 10 µM | 1 to 10 µM | 1 to 10 µM | – | 1 to 10 µM
9 | CN(c1ccc(-c2ccc(-c3cn[nH]c3)c(C#N)n2)nn1)[C@@H]1C[C@H]2CC[C@@H](C1)N2 [Compound 262, 6-{6-[(1R,3R,5S)-8-azabicyclo[3.2.1]octan-3-yl(methyl)amino]pyridazin-3-yl}-3-(1H-pyrazol-4-yl)pyridine-2-carbonitrile] | < 0.1 µM | 0.1 to 1 µM | < 0.1 µM | – | < 0.1 µM
10 | CN(c1ccc(-c2ccc(-c3cn[nH]c3)cn2)nn1)[C@@H]1C[C@H]2CC[C@@H](C1)N2 [Compound 217] | 0.1 to 1 µM | 0.1 to 1 µM | 0.1 to 1 µM | > 10 µM | 1 to 10 µM
11 | CN(c1ccc(-c2ccc(-n3cccn3)c(=O)[nH]2)nn1)[C@@H]1C[C@H]2CC[C@@H](C1)N2 [Compound 130, 6-[6-[(1R,3S,5S)-8-azabicyclo[3.2.1]octan-3-yl(methyl)amino]pyridazin-3-yl]-3-(pyrazol-1-yl)-1H-pyridin-2-one] | 0.1 to 1 µM | 1 to 10 µM | 0.1 to 1 µM | 1 to 10 µM | < 0.1 µM
12 | COc1nc(-c2ccc(N(C)[C@@H]3CCN[C@H](C)C3)nn2)ccc1-c1cn[nH]c1 [Compound 136, 6-[6-methoxy-5-(1H-pyrazol-4-yl)pyridin-2-yl]-N-methyl-N-[(2R,4R)-2-methylpiperidin-4-yl]pyridazin-3-amine] | 1 to 10 µM | 1 to 10 µM | 1 to 10 µM | 0.1 to 1 µM | –
13 | COc1nc(-c2ccc(N(C)C3CC(C)(C)NC(C)(C)C3)nn2)ccc1-c1cnn(C)c1 [Compound 247, 6-[6-methoxy-5-(1-methylpyrazol-4-yl)pyridin-2-yl]-N-methyl-N-(2,2,6,6-tetramethylpiperidin-4-yl)pyridazin-3-amine] | 0.1 to 1 µM | 0.1 to 1 µM | < 0.1 µM | – | 0.1 to 1 µM
14 | COc1nc(-c2ccc(O[C@@H]3C[C@H]4CC[C@@H](C3)N4)nn2)ccc1-c1cn(C)nn1 [Compound 290, 3-({6-[6-methoxy-5-(1-methyl-1,2,3-triazol-4-yl)pyridin-2-yl]pyridazin-3-yl}oxy)-8-azabicyclo[3.2.1]octane] | 0.1 to 1 µM | > 10 µM | 0.1 to 1 µM | – | 1 to 10 µM
15 | CN(c1ccc(-c2ccc(-c3cn[nH]c3)c(OC3CC3)n2)nn1)[C@@H]1C[C@H]2CC[C@@H](C1)N2 [Compound 286, (1R,3R,5S)—N-{6-[6-cyclopropoxy-5-(1H-pyrazol-4-yl)pyridin-2-yl]pyridazin-3-yl}-N-methyl-8-azabicyclo[3.2.1]octan-3-amine] | < 0.1 µM | < 0.1 µM | < 0.1 µM | – | < 0.1 µM
16 | COc1nc(-c2ccc(N(C)[C@@H]3C[C@H]4CC[C@@H](C3)N4)nn2)cc(F)c1-c1cn[nH]c1 [Compound 268, (exo)-N-{6-[4-fluoro-6-methoxy-5-(1H-pyrazol-4-yl)pyridin-2-yl]pyridazin-3-yl}-N-methyl-8-azabicyclo[3.2.1]octan-3-amine] | < 0.1 µM | < 0.1 µM | < 0.1 µM | – | < 0.1 µM
17 | COc1nc(-c2ccc(OC3CC(C)(C)NC(C)(C)C3)nn2)ccc1-c1cnn(C)n1 [Compound 258, 3-[6-methoxy-5-(2-methyl-1,2,3-triazol-4-yl)pyridin-2-yl]-6-[(2,2,6,6-tetramethylpiperidin-4-yl)oxy]pyridazine] | 0.1 to 1 µM | 1 to 10 µM | 0.1 to 1 µM | – | 1 to 10 µM
